Reference: US5262417A, “Antibacterial quinolone compounds” (The Upjohn Company, priority 1991, dated 1993)
Values after ≈ are worked out from the molar mass of the structure shown. Where two headings read alike, the source gives them in different places.

How the values were obtained:
Assay in all cases: Minimum inhibitory concentration (MIC) by agar dilution
Type in all cases: cell-based
Enterobacter cloacae = conditions: 20 h, read-out: MINIMUM INHIBITORY CONCENTRATION
Description: (§1) Briefly, MIC values are determined in unsupplemented Mueller Hinton Agar (MHA). The compounds tested are diluted serially into molten MHA at 47° C. The agar is poured into petri dishes and allowed to harden. The various bacteria used for testing are grown overnight on MHA at 35° C. and transferred to Trypticase soy broth (TSB) until a turbidity of 0.5 McFarland standard is obtained. The bacteria are diluted one to 20 in TSB and inoculated on the plates (1 μl using a Steers replicator).
as §1, with “Compounds of this invention can also be tested for in vitro antimicrobial activity using standard testing procedures such as the determination of minimum inhibitory concentration (MIC) by agar dilution as described in "Methods for Dilution Antimicrobial Susceptibility Tests for Bacteria That Grow Aerobically" (MFT) published Jan. […] Briefly,” for “Briefly,”, “(1μl” for “(1 μl”

[1] = test system: Staphylococcus epidermidis; conditions: 20 h, read-out: MINIMUM INHIBITORY CONCENTRATION
Description: as §1, with “The antibacterial activity of the compounds of Formula IC was determined by using standard testing procedures such as the determination of minimum inhibitory concentration (MIC) by agar dilution as described in "Methods for Dilution Antimicrobial Susceptibility Tests for Bacteria That Grow Aerobically" (MFT) published January 1983 by the National Committee for Clinical Laboratory Standards, 771 East Lancaster Avenue, Villanova, Pa. 19084, USA. Briefly,” for “Briefly,”
(§2) Compounds of this invention can also be tested for in vitro antimicrobial activity using standard testing procedures such as the determination of minimum inhibitory concentration (MIC) by agar dilution as described in "Methods for Dilution Antimicrobial Susceptibility Tests for Bacteria That Grow Aerobically" (MFT) published Jan. 1983 by the National Committee for Clinical Laboratory Standards, 771 East Lancaster Avenue, Villanova, Penna. 19084, USA. Briefly, MIC values are determined in unsupplemented Mueller Hinton Agar (MHA). The compounds tested are diluted serially into molten MHA at 47° C. The agar is poured into petri dishes and allowed to harden. The various bacteria used for testing are grown overnight on MHA at 35° C. and transferred to Trypticase soy broth (TSB) until a turbidity of 0.5 McFarland standard is obtained. The bacteria are diluted one to 20 in TSB and inoculated on the plates (1μl using a Steers replicator). […] The MIC test results of selected of Formula B compounds of this invention are found in Tables B2-B9.

Streptococcus pneumoniae = conditions: Streptococcus pneumoniae, 20 h, read-out: MINIMUM INHIBITORY CONCENTRATION, Cult No. 41, MHA
Description: (§3) The antibacterial activity of the compounds of Formula IC was determined by using standard testing procedures such as the determination of minimum inhibitory concentration (MIC) by agar dilution as described in "Methods for Dilution Antimicrobial Susceptibility Tests for Bacteria That Grow Aerobically" (MFT) published January 1983 by the National Committee for Clinical Laboratory Standards, 771 East Lancaster Avenue, Villanova, Pa. 19084, USA. Briefly, MIC values are determined in unsupplemented Mueller Hinton Agar (MHA). The compounds tested are diluted serially into molten MHA at 47° C. The agar is poured into petri dishes and allowed to harden. The various bacteria used for testing are grown overnight on MHA at 35° C. and transferred to Trypticase soy broth (TSB) until a turbidity of 0.5 McFarland standard is obtained. The bacteria are diluted one to 20 in TSB and inoculated on the plates (1 μl using a Steers replicator).
as §2

Streptococcus faecalis = conditions: Enterococcus faecalis, 20 h, read-out: MINIMUM INHIBITORY CONCENTRATION
Description: as §3, §2

Citerobacter freundii = conditions: 20 h, read-out: MINIMUM INHIBITORY CONCENTRATION
Description: as §3, §2

Serratia marcescens = conditions: 20 h, read-out: MINIMUM INHIBITORY CONCENTRATION
Description: as §3, §2

[2] = test system: Acinetobacter calcoaceticus; conditions: Acinetobacter calcoaceticus, 20 h, read-out: MINIMUM INHIBITORY CONCENTRATION, Cult No. 12170, MHA
Description: as §3, §2

Proteus penneri = conditions: Proteus penneri, 20 h, read-out: MINIMUM INHIBITORY CONCENTRATION, Cult No. 9679, MHA
Description: as §3, §2

Pseudomonas aeruginosa = conditions: Pseudomonas aeruginosa, 20 h
Description: as §3, §2

Streptococcus pyogenes = conditions: Streptococcus pyogenes, 20 h, read-out: MINIMUM INHIBITORY CONCENTRATION, Cult No. 152, MHA
Description: as §3, §2

Staphylococcus aureus = conditions: Staphylococcus aureus, 20 h
Description: as §3, §2

Escherichia coli = conditions: Escherichia coli, 20 h
Description: as §3, §2

Klebsiella pneumoniae = conditions: 20 h, read-out: MINIMUM INHIBITORY CONCENTRATION
Description: as §3, §2

[3] = read-out: MINIMUM INHIBITORY CONCENTRATION, Cult No. 6676, MHA
[4] = read-out: MINIMUM INHIBITORY CONCENTRATION, Cult No. 9191, MHA
[5] = read-out: MINIMUM INHIBITORY CONCENTRATION, Cult No. 12120, MHA
[6] = read-out: MINIMUM INHIBITORY CONCENTRATION, Cult No. 6685, MHA
[7] = read-out: MINIMUM INHIBITORY CONCENTRATION, Cult No. 9213, MHA
[8] = read-out: MINIMUM INHIBITORY CONCENTRATION, Cult No. 9218, MHA
[9] = read-out: MINIMUM INHIBITORY CONCENTRATION, Cult No. 9271, MHA
[10] = read-out: MINIMUM INHIBITORY CONCENTRATION, Cult No. 6674, MHA
[11] = read-out: MINIMUM INHIBITORY CONCENTRATION, Cult No. 9451, MHA
[12] = read-out: MINIMUM INHIBITORY CONCENTRATION, Cult No. 9855, MHA
[13] = read-out: MINIMUM INHIBITORY CONCENTRATION, Cult No. 9952, MHA

Compound | MIC (Enterobacter cloacae) [µg/mL] | MIC [1] [µg/mL] | MIC (Streptococcus pneumoniae) [µg/mL] | MIC (Streptococcus faecalis) [µg/mL] | MIC (Citerobacter freundii) [µg/mL] | MIC (Serratia marcescens) [µg/mL] | MIC [2] [µg/mL] | MIC (Proteus penneri) [µg/mL] | MIC (Pseudomonas aeruginosa; [3]) [µg/mL] | MIC (Pseudomonas aeruginosa; [4]) [µg/mL] | MIC (Pseudomonas aeruginosa; [5]) [µg/mL] | MIC (Streptococcus pyogenes) [µg/mL] | MIC (Staphylococcus aureus; [6]) [µg/mL] | MIC (Staphylococcus aureus; [7]) [µg/mL] | MIC (Staphylococcus aureus; [8]) [µg/mL] | MIC (Staphylococcus aureus; [9]) [µg/mL] | MIC (Escherichia coli; [10]) [µg/mL] | MIC (Escherichia coli; [11]) [µg/mL] | MIC (Escherichia coli; [12]) [µg/mL] | MIC (Escherichia coli; [13]) [µg/mL] | other results
NC1CCN(c2c(F)cc3c(=O)c(C(=O)O)cn(C45CC(C4)C5)c3c2F)C1 (racemic) [No. 84, 7-(3-amino-1-pyrrolidinyl)-1-(bicyclo[1.1.1]pent-1-yl)-1,4-dihydro-6,8-difluoro-4-oxo-3-quinolinecarboxylic acid] | 0.06 (≈ 0.16 µM) | 0.125 (≈ 0.333 µM) | 0.5 (≈ 1.33 µM) | 0.5 (≈ 1.33 µM) | 0.36 (≈ 0.959 µM) | 0.125 (≈ 0.333 µM) | 0.125 (≈ 0.333 µM) | 0.25 (≈ 0.666 µM) | 1 (≈ 2.66 µM) | 0.5 (≈ 1.33 µM) | 0.5 (≈ 1.33 µM) | 0.25 (≈ 0.666 µM) | 0.06 (≈ 0.16 µM) | 0.125 (≈ 0.333 µM) | 0.125 (≈ 0.333 µM) | 0.125 (≈ 0.333 µM) | 0.03 (≈ 0.0799 µM) | 0.06 (≈ 0.16 µM) | 0.06 (≈ 0.16 µM) | 0.03 (≈ 0.0799 µM) | MIC (Klebsiella pneumoniae): 0.06 µg/mL (≈ 0.16 µM)
O=C(O)c1cn(C23CC(C2)C3)c2nc(N3CCC(O)C3)c(F)cc2c1=O (racemic) [No. 91, 7-(3-hydroxy-1-pyrrolidinyl)-1-(bicyclo[1.1.1]pent-1-yl)-1,4-dihydro-6-fluoro-4-oxo-1,8-naphthyridine-3-carboxylic acid] | 0.25 (≈ 0.696 µM) | 0.125 (≈ 0.348 µM) | 1 (≈ 2.78 µM) | 1 (≈ 2.78 µM) | 0.25 (≈ 0.696 µM) | 1 (≈ 2.78 µM) | 0.5 (≈ 1.39 µM) | 1 (≈ 2.78 µM) | 4 (≈ 11.1 µM) | 2 (≈ 5.57 µM) | 2 (≈ 5.57 µM) | 2 (≈ 5.57 µM) | 0.06 (≈ 0.167 µM) | 0.125 (≈ 0.348 µM) | 0.125 (≈ 0.348 µM) | 0.125 (≈ 0.348 µM) | 0.125 (≈ 0.348 µM) | 0.25 (≈ 0.696 µM) | 0.25 (≈ 0.696 µM) | 0.125 (≈ 0.348 µM) | MIC (Klebsiella pneumoniae): 0.5 µg/mL (≈ 1.39 µM)
O=C(O)c1cn(C23CC(C2)C3)c2nc(N3CCNCC3)c(F)cc2c1=O [No. 4, 7-(1-piperazinyl)-1-(bicyclo[1.1.1]pent-1-yl)-1,4-dihydro-6-fluoro-4-oxo-1,8-naphthyridine-3-carboxylic acid] | 0.06 (≈ 0.167 µM) | 0.25 (≈ 0.698 µM) | 2 (≈ 5.58 µM) | 2 (≈ 5.58 µM) | 0.06 (≈ 0.167 µM) | 0.25 (≈ 0.698 µM) | 0.25 (≈ 0.698 µM) | 0.5 (≈ 1.4 µM) | 2 (≈ 5.58 µM) | 1 (≈ 2.79 µM) | 0.5 (≈ 1.4 µM) | 2 (≈ 5.58 µM) | 0.25 (≈ 0.698 µM) | 0.5 (≈ 1.4 µM) | 0.5 (≈ 1.4 µM) | 0.5 (≈ 1.4 µM) | 0.06 (≈ 0.167 µM) | 0.06 (≈ 0.167 µM) | 0.06 (≈ 0.167 µM) | 0.06 (≈ 0.167 µM) | MIC (Klebsiella pneumoniae): 0.125 µg/mL (≈ 0.349 µM)
